{
  "source": "ChEMBL document CHEMBL1122213",
  "about": "“Synthesis and study of a spin-labeled cyclophosphamide analogue, 3-(1-oxy-2,2,6,6-tetramethyl-4-piperidinyl)cyclophosphamide” (J Med Chem, 1982)",
  "key": {"[1]": {"assay": "Half life was determined", "type": "ADME", "settings": "rat"}, "Mus musculus [2]": {"system": "Mus musculus", "assay": "Compound test for increase life span in mice after 100 mg/kg ip administration", "type": "functional", "settings": "route intraperitoneal"}, "[3]": {"assay": "Anticancer activity tested against L1210 lymphoid leukemia in BDF1 mice; range 75-300", "type": "ADME", "settings": "mouse"}, "Mus musculus [4]": {"species": "Mus musculus", "assay": "Effect tested against L1210 lymphoid leukemia in BDF1 mice an inoculum of l0E5 cells; Inactive", "type": "functional, organism-based"}, "[5]": {"assay": "Anticancer activity tested against L1210 lymphoid leukemia in BDF1 mice; range 25-100", "type": "ADME", "settings": "mouse"}},
  "note": "Activity calls are given as the source filed them. The rule behind the calls is not given here.",
  "data": [
    {"smiles": "CC1(C)CC(NP(=O)(O)N(CCCl)CCCl)CC(C)(C)N1O", "values": [
      {"measurement": "half-life", "setting": "[1]", "value": 34, "unit": "min"}
    ]},
    {"smiles": "CC1(C)CC(N2CCCOP2(=O)N(CCCl)CCCl)CC(C)(C)N1[O]", "note": "(configuration not stated)", "values": [
      {"measurement": "Increased", "setting": "Mus musculus [2]", "value": 64, "unit": "%"},
      {"measurement": "Sublethal dose", "setting": "[3]", "value": "> 300", "unit": "mg/kg"},
      {"measurement": "Activity", "setting": "Mus musculus [4]", "value": "inactive"}
    ]},
    {"smiles": "CC1(C)CC(NP(=O)(O)N(CCCl)CCCl)CC(C)(C)N1[O]", "values": [
      {"measurement": "half-life", "setting": "[1]", "value": 51, "unit": "min"}
    ]},
    {"smiles": "CC1(C)CC(NP(=O)(O)N(CCCl)CCCl)CC(C)(C)N1O.CC1(C)CC(NP(=O)(O)N(CCCl)CCCl)CC(C)(C)N1[O]", "note": "[listing 1 of 2 here]", "values": [
      {"measurement": "Activity", "setting": "Mus musculus [4]", "value": "inactive"}
    ]},
    {"smiles": "CC1(C)CC(NP(=O)(O)N(CCCl)CCCl)CC(C)(C)N1O.CC1(C)CC(NP(=O)(O)N(CCCl)CCCl)CC(C)(C)N1[O]", "note": "[listing 2 of 2 here]", "values": [
      {"measurement": "Sublethal dose", "setting": "[5]", "value": "> 100", "unit": "mg/kg"}
    ]}
  ]
}
